Experimental data from PMC8581430, “Peptide ligands targeting FGF receptors promote recovery from dorsal root crush injury via AKT/mTOR signaling” (Theranostics, 2021).

What was measured:
DRG explants = experiment: Axon growth of ex vivo cultured adult DRG explants; assay type: cell-based, Sprague-Dawley rat; conditions: 4 days
Experimental: Figure 3 Effect of the CH02 peptide on axon growth and neuron survival. (A) Representative images of the CH02 peptide effect on axon growth in adult primary DRG neurons. DRG neurons were obtained from adult Sprague-Dawley rats. After 12-h of culture, neurons were stimulated with CH02 or bFGF for 48 h. Axonal outgrowth was assessed by immunocytochemistry using an antibody against β-tubulin, an axonal marker. Images were acquired from random neurons by fluorescence microscopy. Scale bars = 50 μm. (B) Quantification of the longest axon length of each neuron randomly selected in three independent experiments from (A), using Image-Pro Plus 6.0 software (n = 48 for each condition; *p < 0.05, ****p < 0.0001 by one-way ANOVA with Dunnett's test; ns, not significant; mean ± SD). (C) Representative images of the CH02 effect on axon growth in ex vivo cultured adult DRG explants. The axon is shown in fluorescence (β3-tubulin) images. Scale bars = 100 μm. (D) Quantification of axon growth of DRG explants from (C) using the Neurite-J software (n=4 for each condition; *control vs. CH02; #control vs. bFGF; *p < 0.05, **p < 0.01, ***p < 0.001, #p < 0.05, ##p < 0.01 by two-way ANOVA with Dunnett's test; ns, not significant; mean ± SEM). (E) Cell cytotoxicity assay of primary DRG neurons induced by H2O2. LDH released from damaged cell membranes was detected by an LDH assay kit. The results are expressed as the mean ± SEM (**p < 0.01 by one-way ANOVA with Dunnett's test; ns, not significant, compared with the control group). […] Apoptotic neurons were detected by a TUNEL apoptosis assay kit. […] (G) Quantification of TUNEL-positive neurons from (F) (n = 3 for each condition; **p < 0.01 by one-way ANOVA with Dunnett's test; ns, not significant, compared with the control group). […]
DRG explants were harvested from adult Sprague-Dawley rats (220-250 g) and placed in a 3.5 cm dish containing 2 mL of ice-cold neurobasal medium supplemented with 1 × B27, 4 mM Glutamax and 3× penicillin/streptomycin (Pen/Strep). […] After 7 days of culture, axon growth was measured. […]

primary DRG neurons = experiment: Axon growth of primary adult DRG neurons; assay type: cell-based, Sprague-Dawley rat; conditions: 48 h
Experimental: Figure 3 Effect of the CH02 peptide on axon growth and neuron survival. (A) Representative images of the CH02 peptide effect on axon growth in adult primary DRG neurons. DRG neurons were obtained from adult Sprague-Dawley rats. After 12-h of culture, neurons were stimulated with CH02 or bFGF for 48 h. Axonal outgrowth was assessed by immunocytochemistry using an antibody against β-tubulin, an axonal marker. Images were acquired from random neurons by fluorescence microscopy. Scale bars = 50 μm. (B) Quantification of the longest axon length of each neuron randomly selected in three independent experiments from (A), using Image-Pro Plus 6.0 software (n = 48 for each condition; *p < 0.05, ****p < 0.0001 by one-way ANOVA with Dunnett's test; ns, not significant; mean ± SD). (C) Representative images of the CH02 effect on axon growth in ex vivo cultured adult DRG explants. The axon is shown in fluorescence (β3-tubulin) images. Scale bars = 100 μm. (D) Quantification of axon growth of DRG explants from (C) using the Neurite-J software (n=4 for each condition; *control vs. CH02; #control vs. bFGF; *p < 0.05, **p < 0.01, ***p < 0.001, #p < 0.05, ##p < 0.01 by two-way ANOVA with Dunnett's test; ns, not significant; mean ± SEM). (E) Cell cytotoxicity assay of primary DRG neurons induced by H2O2. LDH released from damaged cell membranes was detected by an LDH assay kit. The results are expressed as the mean ± SEM (**p < 0.01 by one-way ANOVA with Dunnett's test; ns, not significant, compared with the control group). (F) Representative TUNEL staining of apoptotic neurons induced by H2O2 in the control, CH02, and FGF2 groups. Scale bars = 50 μm. Apoptotic neurons were detected by a TUNEL apoptosis assay kit. TUNEL (green); NeuN, neuronal marker (red); DAPI (blue). (G) Quantification of TUNEL-positive neurons from (F) (n = 3 for each condition; **p < 0.01 by one-way ANOVA with Dunnett's test; ns, not significant, compared with the control group). DRG neurons were obtained from adult Sprague-Dawley rats. […]

Structure (SMILES)	effect of inhibitor on CH02-enhanced neurite outgrowth, DRG explants (DRG explants; CH02 20 μM + BGJ398 2 μM, n = 5)	effect of inhibitor on CH02-enhanced neurite outgrowth, primary neurons (primary DRG neurons; CH02 20 μM + BGJ398 2 μM, n = 100)	effect of AKT/ERK inhibitor on axon growth-promoting effect of CH02, DRG explants (DRG explants; CH02 20 μM + inhibitor 2 μM, n = 4)	effect of AKT/ERK inhibitor on axon growth-promoting effect of CH02, DRG neurons (primary DRG neurons; CH02 20 μM + inhibitor 2 μM, n = 40)
CCN1CCN(c2ccc(Nc3cc(N(C)C(=O)Nc4c(Cl)c(OC)cc(OC)c4Cl)ncn3)cc2)CC1 [BGJ398]	inhibited the enhancement of neuron outgrowth associated with CH02 treatment	inhibited the enhancement of neuron outgrowth associated with CH02 treatment		
N#CC(=C(/N)Sc1ccccc1N)/C(C#N)=C(/N)Sc1ccccc1N [U0126]			had little effect	had little effect
